Laboratory results taken from article PMC8587869, “Evaluation of the Inhibitory Effects of Pyridylpyrazole Derivatives on LPS-Induced PGE2 Productions and Nitric Oxide in Murine RAW 264.7 Macrophages” (Molecules, 2021).

What was measured:
Assay type in all cases: cell-based, murine
[1] = MTT assay for cell viability in RAW 264.7 macrophages; conditions: mouse, murine RAW 264.7 macrophages, mean ± SD of three experiments
Method: (§1) Before screening the PGE2 and NO production inhibitory effects of the compounds, the compounds’ cytotoxicity was evaluated at 1 and 10 μM concentrations to make sure that the tested concentrations are safe enough and non-cytotoxic to avoid misleading results. All compounds were non-cytotoxic at 1 μM concentration, while by increasing concentration to 10 μM, all the target compounds except 1f, 1k, and 1m started showing cytotoxicity. […] The piperidinyl and the morpholino moieties seem to be unfavorable to avoid cytotoxicity in this series of compounds. page 9: Biological evaluation Cell culture and sample treatment, nitrite determination, PGE2 assay, and MTT assay for cell viability have been carried out following the reported procedures [Bioorg. Med. Chem. Lett. 2014, 24, 571 & Eur. J. Pharmacol. 2008, 584, 175]. Western blot RAW 264.7 macrophage cells were re-suspended in PRO-PREPTM protein extraction solution (Intron Biotechnology, Seoul, Korea) and incubated with 20 min at 4 °C. The cell debris was removed by microcentrifugation, and the supernatants were quickly frozen. The protein concentration was determined using the Bio-Rad protein assay reagent according to the manufacture’s instruction. Cellular proteins were electroblotted onto a PVDF membrane following separation on 8-12% SDS-polyacrylamide gel electrophoresis. The immunoblot was incubated with blocking solution (5% skimmed milk) at room temperature for 1 h, followed by incubation overnight with a primary antibody at 4 °C. The blots were washed four times with a Tween 20/Tris-buffered saline (T/TBS) and incubated with a 1:2000 dilution of horseradish peroxidase-conjugated secondary antibody for 2 h at room temperature. The blots were again washed three times with T/TBS, and then developed by enhanced chemiluminescence (GE healthcare, WI, USA). Page 9 of 55

RAW 264.7 macrophages [2] = assay: as above; conditions: 2.5, 5, 10 μM; LPS-induced RAW 264.7 macrophages
[3] = test system: LPS-induced NO production; assay: Inhibition of LPS-induced NO production (nitrite determination) in RAW 264.7 cells; conditions: LPS-induced RAW 264.7 cells; for inhibition at 1 µM / inhibition at 10 µM: Mus musculus, read-out: Inhibition Rate (%) of NO production; for inhibition at 1 µM: RAW264.7, 1 μM; for inhibition at 10 µM: RAW264.7, 10 μM
Method: (§2) Upon confirming the non-cytotoxicity of 10 μM concentration of these three derivatives against murine RAW 264.7 macrophages induced by LPS, compounds 1f, 1k, and 1m were tested for inhibitory effect against LPS-induced PGE2 production together with checking their cell viability. […] The fluorine atom can also add some more merits such as formation of an additional hydrogen bond with a hydrogen bond donor in the target protein and stronger hydrophobic interaction by fluorophenyl compared with unsubstituted phenyl. […] Moreover, 1f and 1m were evaluated at 1 and 10 μM for inhibitory effects on LPS-induced NO production.
(§3) Cell culture and sample treatment, nitrite determination, PGE2 assay, and MTT assay for cell
(§4) viability have been carried out following the reported procedures [Bioorg. Med. Chem. Lett. […]

RAW 264.7 macrophages [4] = assay: MTT assay for cell viability in RAW 264.7 macrophages; conditions: 10 μM; RAW 264.7 macrophages
Method: as §1

[5] = test system: LPS-induced PGE2 production; assay: Inhibition of LPS-induced PGE2 production in RAW 264.7 macrophages; conditions: for inhibition of PGE2 production (in words): 2.5, 5, 10 μM
Method: as §2, §3, §4

iNOS protein expression = assay: Western blot of iNOS protein expression in LPS-induced RAW 264.7 macrophages; conditions: especially at 10 µM
Method: (§5) Furthermore, the most promising compound 1m was chosen for a more extensive investigation of its molecular mechanism(s) of action. It was tested for inhibitory effects on COX-2 and iNOS protein expressions (Figure 4).
(§6) Cell culture and sample treatment, nitrite determination, PGE2 assay, and MTT assay for cell viability have been carried out following the reported procedures [Bioorg. Med. Chem. Lett.
(§7) RAW 264.7 macrophage cells were re-suspended in PRO-PREPTM protein extraction solution (Intron Biotechnology, Seoul, Korea) and incubated with 20 min at 4 °C. The cell debris was removed by microcentrifugation, and the supernatants were quickly frozen. The protein concentration was determined using the Bio-Rad protein assay reagent according to the manufacture’s instruction. Cellular proteins were electroblotted onto a PVDF membrane following separation on 8-12% SDS-polyacrylamide gel electrophoresis. The immunoblot was incubated with blocking solution (5% skimmed milk) at room temperature for 1 h, followed by incubation overnight with a primary antibody at 4 °C. The blots were washed four times with a Tween 20/Tris-buffered saline (T/TBS) and incubated with a 1:2000 dilution of horseradish peroxidase-conjugated secondary antibody for 2 h at room temperature. The blots were again washed three times with T/TBS, and then developed by enhanced chemiluminescence (GE

phosphorylation of p38 = assay: Western blot of p-p38 in LPS-induced RAW 264.7 macrophages
Method: as §5, §6, §7

COX-2 protein expression = assay: Western blot of COX-2 protein expression in LPS-induced RAW 264.7 macrophages; conditions: especially at 10 µM
Method: as §5, §6, §7

[6] = LPS-induced RAW 264.7 macrophages
[7] = Mus musculus, RAW264.7, LPS-induced RAW 264.7 macrophages

COc1cc(-c2nn(-c3cccc(NC(=O)CCN4CCN(C)CC4)c3)cc2-c2ccncc2)ccc1Cl [Compound 1i]
viability at 1 µM [1]: 99 ± 3.4% | viability at 10 µM [1]: 5 ± 1.8%

COc1cc(-c2nn(-c3cccc(NC(=O)CN4CCN(Cc5ccccc5)CC4)c3)cc2-c2ccncc2)ccc1Cl [Compound 1f]
cytotoxicity (in words), LPS-induced RAW 264.7 cell viability (RAW 264.7 macrophages [2]): no cytotoxicity | Inhibition Rate (%) of NO production ([3]; 10 μM): 11.06 ± 1.5% | inhibition at 1 µM [3]: 0% | inhibition at 10 µM [3]: 11.6% | viability at 1 µM [1]: 66 ± 1.8% | viability at 10 µM [1]: 107 ± 8.5% | cytotoxicity (in words) (RAW 264.7 macrophages [4]): non-cytotoxic | inhibition of PGE2 production (in words) [5, 6]: good inhibition values | IC50 [5, 6]: 7.1 µM | IC50 [5, 7]: 7.6 µM | inhibition at 5 µM ([5]; Mus musculus, RAW264.7, 5 μM, LPS-induced RAW 264.7 macrophages): 37.4% | inhibition at 10 µM [5, 7]: 65.4%

CC(=N)NCCCC[C@H](N)C(=O)O [L-NIL, reference compound]
Inhibition Rate (%) of NO production ([3]; 1 μM): 3.9 ± 2.1% | Inhibition Rate (%) of NO production ([3]; 10 μM): 31.32 ± 2.9%

COc1cc(-c2nn(-c3cccc(NC(=O)CCN4CCN(c5ccccc5)CC4)c3)cc2-c2ccncc2)ccc1Cl [Compound 1k]
cytotoxicity (in words), LPS-induced RAW 264.7 cell viability (RAW 264.7 macrophages [2]): no cytotoxicity | viability at 1 µM [1]: 89 ± 2.8% | viability at 10 µM [1]: 112 ± 7.6% | cytotoxicity (in words) (RAW 264.7 macrophages [4]): non-cytotoxic | inhibition of PGE2 production (in words) [5, 6]: good inhibition values

COc1cc(-c2nn(-c3cccc(NC(=O)CCN4CCN(Cc5ccc(F)cc5)CC4)c3)cc2-c2ccncc2)ccc1Cl [Compound 1m]
cytotoxicity (in words), LPS-induced RAW 264.7 cell viability (RAW 264.7 macrophages [2]): no cytotoxicity | Inhibition Rate (%) of NO production ([3]; 10 μM): 37.19 ± 3.4% | inhibition at 1 µM [3]: 0% | inhibition at 10 µM [3]: 37% | effect on iNOS protein expression (in words) (iNOS protein expression): concentration-dependent inhibitory effect | effect on phosphorylation of p38 (in words) (phosphorylation of p38): markedly suppressed | viability at 1 µM [1]: 90 ± 4.1% | viability at 10 µM [1]: 97 ± 3.9% | cytotoxicity (in words) (RAW 264.7 macrophages [4]): non-cytotoxic | effect on COX-2 protein expression (in words) (COX-2 protein expression): concentration-dependent inhibitory effect | inhibition of PGE2 production (in words) [5, 6]: good inhibition values | IC50 [5, 7]: 1.1 µM | inhibition at 2.5 µM ([5]; Mus musculus, RAW264.7, 2.5 μM, LPS-induced RAW 264.7 macrophages): 67% | inhibition at 10 µM [5, 7]: 84.9%

COc1cc(-c2nn(-c3cccc(NC(=O)CCN4CCCCC4)c3)cc2-c2ccncc2)ccc1Cl [Compound 1g]
viability at 1 µM [1]: 87 ± 3.8% | viability at 10 µM [1]: 5 ± 1.1%

COc1cc(-c2nn(-c3cccc(NC(=O)CCN4CCOCC4)c3)cc2-c2ccncc2)ccc1Cl [Compound 1h]
viability at 1 µM [1]: 99 ± 2.8% | viability at 10 µM [1]: 75 ± 1.7%

COc1cc(-c2nn(-c3cccc(NC(=O)CN4CCOCC4)c3)cc2-c2ccncc2)ccc1Cl [Compound 1b]
viability at 1 µM [1]: 92 ± 4.5% | viability at 10 µM [1]: 65 ± 2.8%

COc1cc(-c2nn(-c3cccc(NC(=O)CN4CCN(c5ccccc5)CC4)c3)cc2-c2ccncc2)ccc1Cl [Compound 1e]
viability at 1 µM [1]: 87 ± 4.1% | viability at 10 µM [1]: 65 ± 4.1%

CCN1CCN(CC(=O)Nc2cccc(-n3cc(-c4ccncc4)c(-c4ccc(Cl)c(OC)c4)n3)c2)CC1 [Compound 1d]
viability at 1 µM [1]: 75 ± 2.9% | viability at 10 µM [1]: 3 ± 0.4%

CCN1CCN(CCC(=O)Nc2cccc(-n3cc(-c4ccncc4)c(-c4ccc(Cl)c(OC)c4)n3)c2)CC1 [Compound 1j]
viability at 1 µM [1]: 98 ± 3.1% | viability at 10 µM [1]: 5 ± 0.8%

COc1cc(-c2nn(-c3cccc(NC(=O)CN4CCCCC4)c3)cc2-c2ccncc2)ccc1Cl [Compound 1a]
viability at 1 µM [1]: 99 ± 5.9% | viability at 10 µM [1]: 10 ± 1.2%

COc1cc(-c2nn(-c3cccc(NC(=O)CN4CCN(C)CC4)c3)cc2-c2ccncc2)ccc1Cl [Compound 1c]
viability at 1 µM [1]: 78 ± 3.3% | viability at 10 µM [1]: 5 ± 0.8%

COc1cc(-c2nn(-c3cccc(NC(=O)CCN4CCN(Cc5ccccc5)CC4)c3)cc2-c2ccncc2)ccc1Cl [Compound 1l]
viability at 1 µM [1]: 86 ± 3.7% | viability at 10 µM [1]: 34 ± 1.1%
